Test results taken from patent US5486604A, “Cyclic ADP ribose antagonists” (Regents of the University of Minnesota, priority 1993, dated 1996).

Tests used:
[1] = system: cADPR-sensitive Ca^+2 release; experiment: cADPR-induced Ca2+ release from L. pictus egg homogenates, Fluo 3; type: biochemical, Lytechinus pictus
[2] = system: caffeine induced Ca^+2 release; experiment: Caffeine induced Ca2+ release and its potentiation by cADPR, S. purpuratus homogenates; type: biochemical, Strongylocentrotus purpuratus
Description: FIG. 7 Inhibition of the potentiating effect of cADPR on caffeine induced Ca^+2 release. Ca^+2 release from S. purpuratus homogenates (1.25%) was measured using Fluo 3 as Ca^+2 indicator. (a) In the absence of cADPR, addition of 1 mM caffeine induced no Ca^+2 release (curve labeled 0). The presence of 20 nM cADPR (arrow labeled cADPR) greatly potentiated the Ca^+2 releasing activity of 1 mM caffeine (curve labeled 20).
(§1) Homogenates from Strongylocentrotus purpuratus eggs were prepared as previously described (Lee, H. C. (1991) J. Biol. Chem. 266, 2276-2281, Lee, H. C. (1993) J. Biol. Chem. 268, 293-299). Briefly, eggs were washed once in artificial sea water, twice in Ca^+2 -free sea water containing 1 mM EGTA, twice in Ca^+2 -free sea water without EGTA, once with the homogenization buffer (GluIAG MPM) containing 250 mM N-methylglucamine, 250 mM potassium gluconate, 20 mM HEPES, and 1 mM MgCl2; pH titrated to 7.2 with acetic acid and resuspended with the same medium to 25% (v/v). The following additions were made: 10 μg/ml of leupeptin, 10 μg/ml of aprotinin, 50 μg/ml of soybean trypsin inhibitor, 2 units/ml of creatine kinase, 4 mM phosphocreatine and 0.5 mM ATP. The suspension was chilled on ice for 10-15 min and transferred to a beaker inside a cell disruption bomb (Parr Instrument Co., Ill.). The suspension was mixed continuously with a magnetic stirring bar while nitrogen pressure of 80 psi was applied for 10-30 seconds. The sudden decompression of the suspension as it was released from the bomb effectively homogenized the eggs. The homogenates were centrifuged for 12-14 seconds (13,000×g, 4° C.) in a microfuge (Fisher) and the supernatant was collected and stored frozen at -70 ° C. until use.
(§2) Frozen egg homogenates prepared as described above were thawed in a 17° C. water bath for 20-30 min and then diluted to 5% with the homogenization medium (GLuIM) containing 2 units/ml of creatine kinase, 4 mM phosphocreatine and 0.5 mM ATP. After incubating at 17° C. for one hour the homogenates were diluted sequentially to 2.5% and finally to 1.25% with the same medium. Following each dilution, the homogenates were incubated at 17° C. for one hour. After the last dilution, fluo 3 was added to a final concentration of 3 μM. Fluorescence was measured at 490 nm excitation and 535 nm emission using a Hitachi spectrofluorimeter (F-2000). Fluo 3 fluorescence intensity is directly related to the Ca^+2 concentration (Dargie, P. J., Agre, M. C., and Lee, Hon. C. (1990) Cell Regulation 1,279-290). In some Figures the Fluo 3 fluorescence intensity was calibrated with the addition of known amounts of Ca^ +2. All assays were done in a curvette maintained at 17° C. with a circulating water bath and its content continuously mixed with a magnetic stirring bar. The volume of homogenate used for each assay was 0.2 ml.

[3] = system: Ca^+2 induced Ca^+2 release; experiment: cADPR potentiation of divalent cation (Ca2+, Sr2+) induced Ca2+ release, S. purpuratus homogenates; type: biochemical, Strongylocentrotus purpuratus
Description: FIG. 6 Inhibition of the potentiating effect of cADPR on Ca^+2 release induced by divalent cations. […] release from S. purpuratus homogenates (1.25% ) was measured using Fluo 3 as Ca^+2 indicator. (a) Ca^+2 release was induced by 75 nM cADPR in the absence of 8-amino-cADPR (-8-NH2). Prior addition of 50 nM 8-amino-cADPR (+8 NH2) prohibited cADPR (75 nM) from releasing Ca^+2. (b) In the presence of 30 nM cADPR, addition of 0.4 nmol of Ca^+2 (arrow labeled Ca) induced further Ca^+2 release (-8-NH2). Prior addition of 50 nM 8-amino-cADPR blocked cADPR from potentiating the Ca^+2 induced Ca^+2 release (+8-NH2). (c) In the presence of 30 nM cADPR, addition of 2 nmol of Sr^+2 (arrow labeled Sr) induced further Ca^ +2 release (-8-NH2). […]
(§3) Frozen egg homogenates prepared as described above were thawed in a 17° C. water bath for 20-30 min and then diluted to 5% with the homogenization medium (GLuIM) containing 2 units/ml of creatine kinase, 4 mM phosphocreatine and 0.5 mM ATP. […] Fluorescence was measured at 490 nm excitation and 535 nm emission using a Hitachi spectrofluorimeter (F-2000). Fluo 3 fluorescence intensity is directly related to the Ca^+2 concentration (Dargie, P. J., Agre, M. C., and Lee, Hon. C. (1990) Cell Regulation 1,279-290). In some Figures the Fluo 3 fluorescence intensity was calibrated with the addition of known amounts of Ca^ +2. […]

[4] = system: cADPR-sensitive Ca^+2 release; experiment: cADPR-induced Ca2+ release from S. purpuratus egg homogenates, Fluo 3 as Ca2+ indicator; type: biochemical, Strongylocentrotus purpuratus
Description: FIG. 2 Inhibition of cADPR induced Ca^+2 release by 8-amino-cADPR Ca^+2 release from S. purpuratus homogenates (1.25%) was monitored using Fluo 3 as Ca^+2 indicator. (a) The effect of varying the concentration of cADPR on Ca^+2 release. (b) The inhibition of Ca^+2 release induced by 135 nM of cADPR by pre-treatment of the homogenates with 100 nM 8-amino-cADPR.
FIG. 3 Competitive inhibition of cADPR dependent Ca^+2 release by 8-amino-cADPR. Ca^+2 release from S. purpuratus homogenates (1.25%) induced by various concentrations of cADPR was measured in the presence and absence of 100 nM 8-amino-cADPR (8-amino-cADPR);
FIG. 5 Effectiveness of 8-amino-cADPR in blocking Ca^+2 release induced by cADPR. (a) Ca^+2 release from S. purpuratus homogenates (1.25%) induced by the addition of 95 nM cADPR was measured using Fluo 3 as Ca^+2 indicator. (b-d) After the Ca^+2 release had started, increasing amounts of 8-amino-cADPR (8-NH2) were added to give the final concentrations indicated in the Figure;
as §1, §2

[5] = system: Ca^+2 release induced by ryanodine; experiment: Ryanodine induced Ca2+ release, S. purpuratus homogenates; type: biochemical, Strongylocentrotus purpuratus
Description: FIG. 8 Inability of 8-amino-cADPR to block Ca^+2 release induced by ryanodine. Ca^+2 release from S. purpuratus homogenates (1.25%) was measured using Fluo 3 as Ca^+2 indicator. Ryanodine and 8-amino-cADPR(8-NH2) were added to the final concentrations as indicated;
as §1, with “The homogenates were centrifuged for 12-14 seconds (13,000×g, 4° C.) in a microfuge (Fisher) and the supernatant was collected and stored frozen at -70 ° C. until use.” left out
as §3

cADPR binding site = experiment: Specific binding of [32P]cADPR to sea urchin egg microsomes (filtration assay); set-up: species or system Lytechinus pictus
Description: FIG. 4 Competitive inhibition of ^32 P-cADPR binding by 8-amino-cADPR and cADPR. Specific binding of ^32 P-cADPR to L. pictus microsomes was measured in the presence of various concentrations of cADPR (filled squares) and 8-amino-cADPR (open squares). Total binding in the presence of a high concentration of cADPR (1.2 μM) was taken as non-specific binding (55 cpm) and was subtracted from all the values;
Specific binding of [^32 P]cADPR to sea urchin egg microsomes was determined by a filtration assay as described previously (Lee, H. C. (1991) J. Biol. Chem. 266, 2276-2281) with some modifications. L. pictus egg homogenates (1 ml) were dialyzed overnight against 1 liter of the homogenization buffer (GluIM listed above). After dialysis, the homogenates were centrifuged for 30 min in a microfuge and the supernatant containing microsomes was collected and diluted 20 fold with GluIM. About 40,000 cpm of [^32 P]cADPR (400 Ci/mmol) and various concentrations of either cADPR or 8-substituted analogs were incubated with the 20 fold diluted microsomes for 10 min at 4° C. in a volume of 0.1 ml. […] The filters were then washed with 4 ml of 10 % polyethylene glycol and the radioactivity on the filters was determined by liquid scintillation counting. […] The specific binding was determined as the total binding minus the binding in the presence of 1.2 μM of unlabeled cADPR. […]

cADPR-sensitive release = settings: pharmacological blockers of CICR; cited from earlier work
[6] = system: specific microsomal binding site for cADPR; settings: cited from earlier work

N=c1c2nc(Br)n3c2ncn1[C@@H]1O[C@H](COP(=O)(O)OP(=O)(O)OC[C@H]2O[C@@H]3[C@H](O)[C@@H]2O)[C@@H](O)[C@H]1O [8-Br-cADPR]
concentrations required for antagonism, compared with 8-amino-cADPR ([1]; 40 nM cADPR): required micromolar concentrations
Ca^+2 release caused by the analog itself ([1]; 1 to 3.5 uM, L. pictus homogenates 2.5%): did not release
blockage of Ca^+2 release induced by 40 nM cADPR ([1]; prior addition of increasing concentrations, 1 to 3.5 uM): progressive blockage

N=c1c2nc(N)n3c2ncn1[C@@H]1O[C@H](COP(=O)(O)OP(=O)(O)OC[C@H]2O[C@@H]3[C@H](O)[C@@H]2O)[C@@H](O)[C@H]1O [8-amino-cADPR]
block of Ca^+2 release induced by a high concentration of caffeine ([2]; 100 nM antagonist, 2.5 mM caffeine, data not shown): did not block
inhibition of cADPR (20 nM) potentiation of caffeine (1 mM) induced Ca^+2 release ([2]; prior addition of 10 nM antagonist): substantial inhibition
inhibition of cADPR (20 nM) potentiation of caffeine (1 mM) induced Ca^+2 release ([2]; prior addition of 100 nM antagonist): completely blocked
stimulated Ca^+2 release after 0.4 nmol Ca^+2 in the presence of 30 nM cADPR ([3]; 50 nM antagonist added before cADPR): absent
stimulated Ca^+2 release after Sr^+2 in the presence of 30 nM cADPR ([3]; prior addition of 50 nM antagonist, 2 nmol Sr^+2): blocked
effect on the concentration-response curve of cADPR ([4]; 100 nM 8-amino-cADPR present): shifted the concentration-response curve toward higher concentrations of cADPR
IC50 ([4]; 135 nM cADPR, read-out: concentration of antagonist at which the rate of Ca^+2 release induced by cADPR was reduced by half): ~9 nM
block of Ca^+2 release induced by cADPR ([4]; 150 nM analog added before 135 nM cADPR): virtually complete
Ca^+2 release caused by the analog itself ([4]; 150 nM final concentration, egg homogenates 1.25%): did not cause any
kind of antagonism of cADPR ([4]; inhibition overcome by increasing cADPR): reversible antagonist
block of Ca^+2 release induced by 75 nM cADPR ([4]; prior addition of 50 nM antagonist): total blockage
effect on ongoing Ca^+2 release when added after release had commenced ([4]; release activated by 95 nM cADPR, 100 nM antagonist): almost total cessation
effect of antagonist on the Ca^+2 release activity of ryanodine ([5]; 100 nM antagonist): slightly stimulated
inhibition of Ca^+2 release induced by ryanodine ([5]; 100 nM antagonist): did not inhibit
competition for the [32P]cADPR binding sites (cADPR binding site; L. pictus egg microsomes, compared with unlabeled cADPR): as effective as cADPR itself

[N-]=[N+]=Nc1nc2c(=N)n3cnc2n1[C@@H]1O[C@H](COP(=O)(O)OP(=O)(O)OC[C@H]2O[C@@H]3[C@H](O)[C@@H]2O)[C@@H](O)[C@H]1O [8-azido-cADPR]
antagonist potency rank ([1]; data not shown): between that of 8-amino-cADPR and 8-Br-cADPR

N=c1c2ncn3c2ncn1[C@@H]1O[C@H](COP(=O)(O)OP(=O)(O)OC[C@H]2O[C@@H]3[C@H](O)[C@@H]2O)[C@@H](O)[C@H]1O [cADPR, Cyclic ADP-ribose, reference compound]
potentiation of caffeine (1 mM) induced Ca^+2 release ([2]; 20 nM cADPR, not sufficient to release Ca^+2 by itself): greatly increased the caffeine sensitivity
EC50 ([4]; in the absence of the analog, read-out: half-maximal concentration for Ca^+2 release): ~90 nM
Kd (cADPR binding site; dialyzed L. pictus homogenates, 0-5 C, no ATP, read-out: apparent affinity constant derived from the binding data): ~1 nM

Cn1c(=O)c2c(ncn2C)n(C)c1=O [caffeine, reference compound]
Ca^+2 release by caffeine alone ([2]; 1 mM caffeine, absence of cADPR): did not produce any

CCN(CC)CCOC(=O)c1ccc(N)cc1 [procaine]
effect on the cADPR-sensitive release (cADPR-sensitive release): specifically inhibit

N.N.N.N.N.N.N.N.N.N.N.N.N.N.[Cl-].[Cl-].[Cl-].[Cl-].[Cl-].[Cl-].[O-2].[O-2].[Ru+3].[Ru+3].[Ru+4] [ruthenium red]
effect on the cADPR-sensitive release (cADPR-sensitive release): specifically inhibit

inositol trisphosphate
competition for the specific microsomal binding site for cADPR, relative to cADPR [6]: at least a thousand times less effectively than cADPR

ryanodine [reference compound]
Ca^+2 release on addition to egg homogenates ([5]; ryanodine alone): concentration-dependent release
